Where a name gives a salt, the structure may show the parent alone.

In test [1] the target is T1, mouse TAAR1 (Mus musculus, UniProt Q923Y8).
T1 construct: expressed in transfected cells; membrane preparation
Description: Radioligand binding assay on mouse TAAR1. The settings on record: mouse TAAR1, HEK-293 membranes, first value of cell mouse/rat. The method, then: (§1) For the construction of expression plasmids the coding sequences of human, rat and mouse TAAR 1 were amplified from genomic DNA essentially as described by Lindemann et al.. The Expand High Fidelity PCR System (Roche Diagnostics) was used with 1.5 mM Mg^2+ and purified PCR products were cloned into pCR2.1-TOPO cloning vector (Invitrogen) following the instructions of the manufacturer. PCR products were subcloned into the pIRESneo2 vector (BD Clontech, Palo Alto, Calif.), and expression vectors were sequence verified before introduction in cell lines.
(§2) HEK293 cells (ATCC # CRL-1573) were cultured essentially as described by Lindemann et al. (2005). For the generation of stably transfected cell lines HEK293 cells were transfected with the pIRESneo2 expression plasmids containing the TAAR coding sequences (described above) with Lipofectamine 2000 (Invitrogen) according to the instructions of the manufacturer, and 24 hrs post transfection the culture medium was supplemented with 1 mg/ml G418 (Sigma, Buchs, Switzerland). After a culture period of about 10 d clones were isolated, expanded and tested for responsiveness to trace amines (all compounds purchased from Sigma) with the cAMP Biotrak Enzyme immunoassay (EIA) System (Amersham) following the non-acetylation EIA procedure provided by the manufacturer.
Radioligand Binding Assay on Mouse TAAR1
(§3) Membrane Preparation and Radioligand Binding.
HEK-293 cells stably expressing mouse TAAR1 were maintained at 37° C. and 5% CO2 in DMEM high glucose medium, containing fetal calf serum (10%, heat inactivated for 30 min at 56° C.), penicillin/streptomycin (1%), and 375 μg/ml geneticin (Gibco). Cells were released from culture flasks using trypsin/EDTA, harvested, washed twice with ice-cold PBS (without Ca^2+ and Mg^2+), pelleted at 1,000 rpm for 5 min at 4° C., frozen and stored at −80° C. Frozen pellets were suspended in 20 ml HEPES-NaOH (20 mM, pH 7.4) containing 10 mM EDTA and homogenized with a Polytron (PT 6000, Kinematica) at 14,000 rpm for 20 s. The homogenate was centrifuged at 48,000×g for 30 min at 4° C. Subsequently, the supernatant was removed and discarded, and the pellet resuspended in 20 ml HEPES-NaOH (20 mM, pH 7.4) containing 0.1 mM EDTA using the Polytron (20 s at 14,000 rpm). This procedure was repeated and the final pellet resuspended in HEPES-NaOH containing 0.1 mM EDTA and homogenized using the Polytron. Typically, aliquots of 2 ml membrane portions were stored at −80° C. With each new membrane batch the dissociation constant (Kd) was determined via a saturation curve. The TAAR1 radioligand ^3[H]—(S)-4-[(ethyl-phenyl-amino)-methyl]-4,5-dihydro-oxazol-2-ylamine (described in WO 2008/098857) was used at a concentration equal to the calculated Kd value, that was usually around 0.7 nM, resulting in the binding of approximately 0.5% of the radioligand and a specific binding representing approximately 70% of the total binding. Nonspecific binding was defined as the amount of ^3[H]—(S)-4-[(ethyl-phenyl-amino)-methyl]-4,5-dihydro-oxazol-2-ylamine bound in the presence of 10 μM unlabeled ligand. All compounds were tested at a broad range of concentrations (10 pM to 10 μM) in duplicates. The test compounds (20 μl/well) were transferred into a 96 deep well plate (TreffLab), and 180 μl of HEPES-NaOH (20 mM, pH 7.4) containing MgCl2 (10 mM) and CaCl2 (2 mM) (binding buffer), 300 μl of the radioligand ^3[H]—(S)-4-[(ethyl-phenyl-amino)-methyl]-4,5-dihydro-oxazol-2-ylamine at a concentration of 3.3×Kd in nM and 500 μl of the membranes (resuspended at 60 μg protein per ml) added. The 96 deep well plates were incubated for 1 hr at 4° C. Incubations were terminated by rapid filtration through Unifilter-96 plates (Packard Instrument Company) and glass filters GF/C (Perkin Elmer) presoaked for 1 hr in polyethylenimine (0.3%) and washed 3 times with 1 ml of cold binding buffer. […]

The target of test [2] is T2, rat TAAR1 (Rattus norvegicus, UniProt Q923Y9).
T2 construct: expressed in transfected cells; membrane preparation
T2 sequence (Q923Y9 whole entry): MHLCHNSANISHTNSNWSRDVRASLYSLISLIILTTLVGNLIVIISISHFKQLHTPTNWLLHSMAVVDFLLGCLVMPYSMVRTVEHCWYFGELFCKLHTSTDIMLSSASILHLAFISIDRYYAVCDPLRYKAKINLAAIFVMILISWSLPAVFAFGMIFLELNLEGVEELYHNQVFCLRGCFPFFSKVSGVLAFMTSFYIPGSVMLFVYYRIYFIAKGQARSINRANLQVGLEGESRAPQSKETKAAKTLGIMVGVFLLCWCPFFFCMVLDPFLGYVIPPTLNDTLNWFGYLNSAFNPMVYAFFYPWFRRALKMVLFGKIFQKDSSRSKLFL
As to the kind of experiment: Radioligand binding assay on rat TAAR1. The note with it: rat TAAR1, HEK-293 membranes, second value of cell mouse/rat. As for the experimental part: as §1, §2
Radioligand Binding Assay on Rat TAAR1
as §3
HEK-293 cells stably expressing rat TAAR1 were maintained at 37° C. and 5% CO2 in DMEM high glucose medium, containing fetal calf serum (10%, heat inactivated for 30 min at 56° C.), penicillin/streptomycin (1%), and 375 μg/ml geneticin (Gibco). Cells were released from culture flasks using trypsin/EDTA, harvested, washed twice with ice-cold PBS (without Ca^2+ and Mg^2+), pelleted at 1,000 rpm for 5 min at 4° C., frozen and stored at −80° C. Frozen pellets were suspended in 20 ml HEPES-NaOH (20 mM, pH 7.4) containing 10 mM EDTA and homogenized with a Polytron (PT 6000, Kinematica) at 14,000 rpm for 20 s. The homogenate was centrifuged at 48,000×g for 30 min at 4° C. Subsequently, the supernatant was removed and discarded, and the pellet resuspended in 20 ml HEPES-NaOH (20 mM, pH 7.4) containing 0.1 mM EDTA using the Polytron (20 s at 14,000 rpm). This procedure was repeated and the final pellet resuspended in HEPES-NaOH containing 0.1 mM EDTA and homogenized using the Polytron. Typically, aliquots of 2 ml membrane portions were stored at −80° C. With each new membrane batch the dissociation constant (Kd) was determined via a saturation curve. […] Nonspecific binding was defined as the amount of ^3[H]—(S)-4-[(ethyl-phenyl-amino)-methyl]-4,5-dihydro-oxazol-2-ylamine bound in the presence of 10 μM unlabeled ligand. All compounds were tested at a broad range of concentrations (10 pM to 10 μM) in duplicates. The test compounds (20 μl/well) were transferred into a 96 deep well plate (TreffLab), and 180 μl of HEPES-NaOH (20 mM, pH 7.4) containing MgCl2 (10 mM) and CaCl2 (2 mM) (binding buffer), 300 μl of the radioligand ^3[H]—(S)-4-[(ethyl-phenyl-amino)-methyl]-4,5-dihydro-oxazol-2-ylamine at a concentration of 3.3×Kd in nM and 500 μl of the membranes (resuspended at 50 μg protein per ml) added. The 96 deep well plates were incubated for 1 hr at 4° C. Incubations were terminated by rapid filtration through Unifilter-96 plates (Packard Instrument Company) and glass filters GF/C (Perkin Elmer) presoaked for 1 hr in polyethylenimine (0.3%) and washed 3 times with 1 ml of cold binding buffer. After addition of 45 μl of Microscint 40 (PerkinElmer) the Unifilter-96 plate was sealed and after 1 hr the […] counted using a TopCount Microplate Scintillation Counter (Packard Instrument Company).

T1 sequence (Q923Y8 whole entry): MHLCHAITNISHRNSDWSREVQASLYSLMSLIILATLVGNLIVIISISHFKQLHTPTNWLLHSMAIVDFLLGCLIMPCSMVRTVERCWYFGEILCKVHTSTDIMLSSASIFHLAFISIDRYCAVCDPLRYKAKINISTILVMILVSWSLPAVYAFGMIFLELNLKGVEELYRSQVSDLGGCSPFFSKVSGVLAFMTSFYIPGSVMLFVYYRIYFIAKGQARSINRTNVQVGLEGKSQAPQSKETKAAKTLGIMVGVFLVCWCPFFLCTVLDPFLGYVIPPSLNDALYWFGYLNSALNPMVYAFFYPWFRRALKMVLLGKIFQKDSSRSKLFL

As for `O=C(Nc1ccc([C@@H]2CNCCO2)c(F)c1)c1cnc(C(F)(F)F)cn1` [Example 1, (R)—N-(3-Fluoro-4-(morpholin-2-yl)phenyl)-5-(trifluoromethyl)pyrazine-2-carboxamide hydrochloride], the Ki came out at 0.0115 µM in test [1] and 0.009 µM in test [2].

In the case of `N#Cc1cc(NC(=O)c2cnc(C(F)(F)F)cn2)ccc1[C@@H]1CNCCO1` [Example 2, (R)—N-(3-Cyano-4-(morpholin-2-yl)phenyl)-5-(trifluoromethyl)pyrazine-2-carboxamide hydrochloride], the Ki in test [1] was 0.0184 µM; in test [2] it was 0.0186 µM.

For the molecule `N#Cc1cc(NC(=O)c2cnc(C(F)(F)F)cn2)ccc1[C@H]1CNCCO1` [Example 3, (S)—N-(3-Cyano-4-(morpholin-2-yl)phenyl)-5-(trifluoromethyl)pyrazine-2-carboxamide hydrochloride], the inhibition constant (Ki) in test [1] came to 0.0204 µM; in test [2], 1.09 µM.

With `N#Cc1cc(NC(=O)c2cncc(C(F)(F)F)n2)ccc1[C@@H]1CNCCO1` [Example 4, (R)—N-(3-Cyano-4-(morpholin-2-yl)phenyl)-6-(trifluoromethyl)pyrazine-2-carboxamide hydrochloride], the values for the inhibition constant (Ki) in test [1] and in test [2] were 0.0833 µM and 0.0344 µM, respectively.

Consider `O=C(Nc1ccc([C@H]2CNCCO2)c(F)c1)c1cncc(C(F)(F)F)n1` [Example 5, (S)—N-(3-Fluoro-4-(morpholin-2-yl)phenyl)-6-(trifluoromethyl)pyrazine-2-carboxamide hydrochloride], for which the Ki in test [1] worked out at 0.038 µM; in test [2] it was 0.054 µM.

Consider `O=C(Nc1ccc([C@@H]2CNCCO2)c(F)c1)c1cncc(C(F)(F)F)n1` [Example 6, (R)—N-(3-Fluoro-4-(morpholin-2-yl)phenyl)-6-(trifluoromethyl)pyrazine-2-carboxamide hydrochloride], for which the Ki in test [1] came out at 0.0328 µM; in test [2], 0.0197 µM.

Turning to `COc1cncc(C(=O)Nc2ccc([C@@H]3CNCCO3)c(F)c2)n1` [Example 7, (R)—N-(3-Fluoro-4-(morpholin-2-yl)phenyl)-6-methoxypyrazine-2-carboxamide hydrochloride], the inhibitory constant (Ki) in test [1] stood at 0.147 µM; in test [2], 0.068 µM.

Take `COc1cnc(C(=O)Nc2ccc([C@@H]3CNCCO3)c(F)c2)cn1` [Example 8, (R)—N-(3-Fluoro-4-(morpholin-2-yl)phenyl)-5-methoxypyrazine-2-carboxamide hydrochloride]: the Ki in test [1] is 0.0107 µM; in test [2], 0.0476 µM.

Regarding `COc1cncc(C(=O)Nc2ccc([C@H]3CNCCO3)c(F)c2)n1` [Example 9, (S)—N-(3-Fluoro-4-(morpholin-2-yl)phenyl)-6-methoxypyrazine-2-carboxamide hydrochloride], the Ki was found to be 0.0314 µM in test [1] and 0.247 µM in test [2].

As for `COc1cnc(C(=O)Nc2ccc([C@H]3CNCCO3)c(F)c2)cn1` [Example 10, (S)—N-(3-Fluoro-4-(morpholin-2-yl)phenyl)-5-methoxypyrazine-2-carboxamide hydrochloride], the Ki in test [1] stood at 0.0136 µM; in test [2], 0.54 µM.

`O=C(Nc1ccc([C@H]2CNCCO2)c(F)c1)c1cnc(OCC2CCC2)cn1` [Example 11, (S)-5-(Cyclobutylmethoxy)-N-(3-fluoro-4-(morpholin-2-yl)phenyl)pyrazine-2-carboxamide hydrochloride]: the Ki in test [1] is 0.0046 µM; in test [2] it was 0.0119 µM.

Consider `O=C(Nc1ccc([C@H]2CNCCO2)c(F)c1)c1cnc(OCC2CC2)cn1` [Example 12, (S)-5-(Cyclopropylmethoxy)-N-(3-fluoro-4-(morpholin-2-yl)phenyl)pyrazine-2-carboxamide hydrochloride], for which the Ki in test [1] was found to be 0.0045 µM; in test [2] it was 0.04 µM.

Consider `CCOc1cnc(C(=O)Nc2ccc([C@H]3CNCCO3)c(F)c2)cn1` [Example 13, (S)-5-Ethoxy-N-(3-fluoro-4-(morpholin-2-yl)phenyl)pyrazine-2-carboxamide hydrochloride], for which the inhibition constant (Ki) in test [1] came to 0.0041 µM; in test [2], 0.11 µM.

For `O=C(Nc1ccc([C@H]2CNCCO2)c(F)c1)c1cnc2ccccc2n1` [Example 14, (S)—N-(3-Fluoro-4-(morpholin-2-yl)phenyl)quinoxaline-2-carboxamide hydrochloride], the inhibition constant (Ki) in test [1] worked out at 0.0028 µM; in test [2], 0.0222 µM.

Take `Cc1ccc2ncc(C(=O)Nc3ccc([C@H]4CNCCO4)c(F)c3)nc2c1` [Example 15, 7-Methyl-quinoxaline-2-carboxylic acid ((S)-3-fluoro-4-morpholin-2-yl-phenyl)-amide hydrochloride]: the Ki in test [1] was determined as 0.0068 µM; in test [2], 0.0131 µM.

With `O=C(Nc1ccc([C@H]2CNCCO2)c(F)c1)c1cnc(N2CC(F)(F)C2)cn1` [Example 16, 5-(3,3-Difluoro-azetidin-1-yl)-pyrazine-2-carboxylic acid ((S)-3-fluoro-4-morpholin-2-yl-phenyl)-amide hydrochloride], the Ki in test [1] was determined as 0.0193 µM; in test [2] it was 0.191 µM.

Take `O=C(Nc1ccc([C@@H]2CNCCO2)c(F)c1)c1cnc(C2CC2)cn1` [Example 17, 5-Cyclopropyl-pyrazine-2-carboxylic acid ((R)-3-fluoro-4-morpholin-2-yl-phenyl)-amide hydrochloride]: the Ki in test [1] turned out to be 0.0072 µM; in test [2] it was 0.0076 µM.

For the molecule `O=C(Nc1ccc([C@H]2CNCCO2)c(F)c1)c1cnc(C2CC2)cn1` [Example 18, 5-Cyclopropyl-pyrazine-2-carboxylic acid ((S)-3-fluoro-4-morpholin-2-yl-phenyl)-amide hydrochloride], the Ki in test [1] turned out to be 0.0036 µM; in test [2] it was 0.0625 µM.

A word on the Ki: it is the dissociation constant of the complex between target and ligand, obtained from inhibition or displacement.
